Series [1] deals with HepG2.2.15 and Vero cells.
In a further series the test system is Hepatitis B virus (HBV). The series is described as follows: microbe, parasite or virus in culture. In kind it is cell-based. To be noted: read-out: EC50 HBV.
Series [2] concerns poliovirus type 1 Sabin strain (PV-1). The series is described as follows: microbe, parasite or virus in culture. In kind it is cell-based. To be noted: for EC50 / inhibition at 0.0001 µM / inhibition at 0.001 µM / inhibition at 0.01 µM / inhibition at 0.1 µM / inhibition at 1 µM: Enterovirus C, Vero; for EC50: 24 h, read-out: EC50 PV-1; for inhibition at 0.0001 µM / inhibition at 0.001 µM / inhibition at 0.01 µM / inhibition at 0.1 µM / inhibition at 1 µM: N 3, read-out: Inhibition percent relative to control, Polio virus (Median).

A short description of series [3]: in vitro. The note with it: human (HepG2.2.15); African green monkey (Vero).
Series [4] has as its system Herpes simplex type 1 F strain (HSV-1). As to the kind of experiment: microbe, parasite or virus in culture. In kind it is cell-based, Herpes Simplex Virus type 1. The note with it: for EC50 / inhibition at 10 µM / inhibition at 0.0001 µM / inhibition at 0.001 µM / inhibition at 0.01 µM / inhibition at 0.1 µM / inhibition at 1 µM: Human alphaherpesvirus 1, Vero; for EC50: 48 h, read-out: EC50 HSV-1; for inhibition at 10 µM: read-out: Inhibitory effect against HSV-1; for inhibition at 0.0001 µM / inhibition at 0.001 µM / inhibition at 0.01 µM / inhibition at 0.1 µM / inhibition at 1 µM: N 3, read-out: Inhibition percent relative to control, Herpes simplex virus (Median).

The nature of series [5]: in vitro. To be noted: human.
Setting [6] is: Hepatitis B virus, HepG2.2.15, 72 h.

Several values for one entry are separate records, joined by “and”; a condition that tells them apart may be missing. Equal entries are not always repeated. Where two headings read alike, the source gives them in different places.

As to 24,25-dehydropollinastanol, the CC50 (in series [1]; in the series on HepG2.2.15 cells) was above 100 µM each time.
In the case of `CC(C)CCC[C@@H](C)[C@H]1CC[C@H]2[C@@H]3CC[C@H]4C[C@@H](O)CC[C@]4(C)[C@H]3CC[C@]12C` [5-α-cholestan-3-β-ol], the CC50 (in series [1]; in the series with HepG2.2.15 cells) was above 100 µM each time.
On to `CC(C)CCC[C@@H](C)[C@H]1CC[C@H]2C3=CC[C@H]4C[C@@H](O)CC[C@]4(C)[C@H]3CC[C@]12C` [5-α-cholestan-7-en3-β-ol], for which the CC50 (in series [1]; in the series on HepG2.2.15 cells) was above 100 µM throughout.
In the case of `C[C@@H]1O[C@@H](Oc2c(-c3cc(O)c(O)c(O)c3)oc3cc(O)cc(O)c3c2=O)[C@H](O)[C@H](O)[C@H]1O` [MyrG, myricetin rhamnoside], the CC50 (in series [1]; in the series with HepG2.2.15 cells) was above 100 µM throughout. The EC50 in the series with Hepatitis B virus (HBV) is 0.015 µM.
As for `C[C@@H]1O[C@@H](OC[C@H]2O[C@H](Oc3c(-c4cc(O)c(O)c(O)c4)oc4cc(O)cc(O)c4c3=O)[C@H](O)[C@@H](O)[C@H]2O)[C@H](O)[C@H](O)[C@H]1O` [MyrGG, myricetin-3-α-O-ramnosil (1→6)-α-galactoside], the CC50 (in series [1]; with HepG2.2.15 cells) was above 100 µM each time. For the same compound, the concentration for a half-maximal effect (EC50) in the series on Hepatitis B virus (HBV) was 12 µM.
In the case of `COc1ccc(-c2oc3c(OC)c(OC)c(OC)c(O)c3c(=O)c2OC)cc1O` [PMF, 5,3'-dihydroxy-3,6,7,8,4'-pentamethoxyflavone], the “Plaque forming units, Polio virus” value in series [2] (0.0001 µM) is 91 PFU and 92 PFU and 89 PFU; in series [2] (0.001 µM), 81 PFU and 80 PFU and 78 PFU; in series [2] (0.01 µM), 45 PFU and 41 PFU and 48 PFU; in series [2] (0.1 µM), 11 PFU and 16 PFU and 10 PFU. For the same compound, the results for the concentration giving a half-maximal response (EC50) (in series [2]; with Hepatitis B virus (HBV) (setting [6]); in series [4]) were 1 ± 0.05 µM, 0.001 µM and 6.8 ± 0.2 µM, respectively. Further, the inhibition at 0.0001 µM in series [2] (0.0001 µM) was 0.1%; in series [4] (0.0001 µM) it was 3.14%. The inhibition at 0.001 µM in series [2] (0.001 µM) came out at 11.5%; in series [4] (0.001 µM), 21.5%. Moreover, the inhibition at 0.01 µM came out at 50.4% in series [2] (0.01 µM) and 29.9% in series [4] (0.01 µM). In addition, the inhibition at 0.1 µM was found to be 86.3% in series [2] (0.1 µM) and 44.1% in series [4] (0.1 µM). For the same compound, the figures for the inhibition at 1 µM in series [2] and in series [4] (1 µM) were 97.8% and 64.9%, respectively. Besides, the CC50 in the series “in vitro [3]” is above 100 µM; in “in vitro [5]” it was 10 ± 0.1 µM. In addition, the “Plaque forming units, Herpes simplex virus” value in series [4] (0.0001 µM) was 98 PFU and 91 PFU and 90 PFU; in series [4] (0.001 µM) it was 82 PFU and 68 PFU and 76 PFU; in series [4] (0.01 µM) it was 68 PFU and 73 PFU and 61 PFU; in series [4] (0.1 µM) it was 48 PFU and 58 PFU and 55 PFU; in series [4] (1 µM) it was 34 PFU and 30 PFU and 37 PFU. Besides, the inhibition at 10 µM in series [4] was 90%.
As to `COc1ccc(-c2oc3cc(OC)c(OC)c(O)c3c(=O)c2OC)cc1OC` [PMF-OH, 5-hydroxy-3,6,7,3',4'-pentamethoxyflavone], the “Plaque forming units, Polio virus” value in series [2] (0.0001 µM) is 92 PFU and 95 PFU and 90 PFU; in series [2] (0.001 µM) it was 76 PFU and 70 PFU and 73 PFU; in series [2] (0.01 µM) it was 42 PFU and 40 PFU and 48 PFU; in series [2] (0.1 µM), 23 PFU and 20 PFU and 26 PFU. The values for the EC50 (in series [2]; in the series with Hepatitis B virus (HBV) (setting [6]); in series [4]) were 1.1 ± 0.03 µM, 0.098 µM and 5.9 ± 0.1 µM, respectively. Further, the figures for the inhibition at 0.0001 µM in series [2] (0.0001 µM) and in series [4] (0.0001 µM) were 0.1% and 1.4%, respectively. Besides, the inhibition at 0.001 µM is 18.9% in series [2] (0.001 µM) and 13.9% in series [4] (0.001 µM). In addition, the inhibition at 0.01 µM in series [2] (0.01 µM) came out at 51.9%; in series [4] (0.01 µM) it was 24%. Further, the inhibition at 0.1 µM in series [2] (0.1 µM) amounted to 74.4%; in series [4] (0.1 µM), 40.3%. Also, the inhibition at 1 µM in series [2] worked out at 96.3%; in series [4] (1 µM) it was 91.3%. The CC50 in “in vitro [3]” is above 100 µM; in “in vitro [5]”, 10 ± 0.58 µM. Further, the “Plaque forming units, Herpes simplex virus” value in series [4] (0.0001 µM) was 96 PFU and 98 PFU and 90 PFU; in series [4] (0.001 µM) it was 80 PFU and 82 PFU and 86 PFU; in series [4] (0.01 µM) it was 76 PFU and 73 PFU and 70 PFU; in series [4] (0.1 µM), 67 PFU and 55 PFU and 50 PFU; in series [4] (1 µM), 10 PFU and 5 PFU. Further, the inhibition at 10 µM in series [4] stood at 60%.
With `C=C(C)C1CCC2(C)CCC3(C)C(=CCC4C5(C)CCC(O)C(C)(C)C5CCC43C)C12` (stereo not drawn) [Upa-12,20(29)-dien-3-ol, lupa-12,20(29)-dien-3-ol], the CC50 (in series [1]; with HepG2.2.15 cells) was above 100 µM throughout.
For marcetol, the CC50 (in series [1]; in the series with HepG2.2.15 cells) was above 100 µM throughout.

The record behind these values is publication PMC6868923 (EXCLI Journal, 2019).
